From US11925656B2, “Biological total joint replacement” (priority 2014, dated 2024)

How the values were obtained:
[1] = test system: lubricin; assay: Lubricin in synovium by ELISA, rabbit arthritis model; assay type: in vivo
Text: (§1) The study was approved by the Institutional Animal Care and Use Committee (IACUC) of Thomas D. Morris, Inc. 28 New Zeeland White rabbits were selected for the study. Six such were randomly assigned to one of four groups; prophylactic cyanidin-3-glycoside (C3G)(referred to figures as Cl 1-42), prophylactic protocatechuic acid (PCA)(referred to in figures as PCA 1-42), therapeutic C3G (referred to in figures as Cl 42-70), and therapeutic PCA (referred to in figures as PCA 42-70). There were four controls, two each to the prophylactic and therapeutic groups.
(§2) The prophylactic groups were given PROC3G™ by Chromadex™ at a dose of 30 mg/kg of body weight of either C3G or PCA by mouth, 7 times per week for 42 days. The therapeutic groups' treatment was initiated on day 42 with a daily dose of PROC3G™ by Chromadex™ 7 times per week for 4 weeks. The dose of 30 mg of cyanidin-3-glucoside per kg of body weight calculates to be 0.177 millimoles per kg body weight. The dose of PCA was the same in terms of millimoles per kg body weight.
(§3) The experimental rabbits underwent surgery with an intent to create a severe degenerative arthritis by cutting the medial collateral ligament, the anterior cruciate ligament and removing the medial meniscus. A partial thickness laceration was made longitudinally on the lateral femoral condyle for future assessment of potential for repair. The surgery was performed by two licensed veterinarians. One surgeon was very experienced. The other surgeon was a recent graduate.
(§4) At necropsy, the synovial fluid was harvested percutaneously and upon arthrotomy. The synovium was harvested from posterior compartment. The patella and adjacent synovium was procured as a separate specimen as was the medial and lateral condyle.
(§5) The synovial fluid and half of the synovium was frozen and sent to BioBoston Laboratory for chemical analysis. The other half of the synovium and bone was sent to McClinchery Histology in Stockbridge, Mich. for histological preparation and staining. […]
(§6) Synovial Tissue (Synovium)—Detected by ELISA

[2] = test system: IGF-1; assay: IGF-1 in plasma, rabbit arthritis model; assay type: in vivo; details: control group 25 PG/ML
Text: as §1, §2, §3
Blood testing was performed prior to necropsy on C3G, PCA, glucose, MMP-3 and IGF-1 to assess any systemic effects.

[3] = test system: MMP-1; assay: MMP-1 in synovium by ELISA, rabbit arthritis model; assay type: in vivo; details: therapeutic group, oral days 42-70, vs control
Text: as §1, §2
as §3, with “The surgery was performed by two licensed veterinarians. One surgeon was very experienced. The other surgeon was a recent graduate.” left out

[4] = test system: MMP3; assay: MMP3 in synovial fluid by ELISA, rabbit arthritis model; assay type: in vivo; details: therapeutic groups, oral days 42-70, vs control
Text: as §1
(§7) The prophylactic groups were given PROC3G™ by Chromadex™ at a dose of 30 mg/kg of body weight of either C3G or PCA by mouth, 7 times per week for 42 days. The therapeutic groups' treatment was initiated on day 42 with a daily dose of PROC3G™ by Chromadex™ 7 times per week for 4 weeks. The dose of 30 mg of cyanidin-3-glucoside per kg of body weight calculates to be 0.177 millimoles per kg body weight. The dose of PCA was the same in terms of millimoles per kg body weight. […]
MMP3 is known as matrix metallopeptidase 3, or stromelysin 1 or progelatinase. […] See FIG. 2C. • Synovial Tissue (Synovium)—Detected by ELISA • MMP-3 levels were reduced in all four groups. See FIG. 9B. • Synovial Tissue (Synovium)—Gene Expression Level Detected by Real-Time PCR • MMP-3 gene expression was decreased in all groups. […]

[5] = test system: ADAMTS-5; assay: ADAMTS-5 in synovial fluid by ELISA, rabbit arthritis model; assay type: in vivo
Text: as §1, §2, §3, §4, §5
(§8) Synovial Fluid—Detected by ELISA

[6] = test system: C-reactive protein (CRP); assay: C-reactive protein (CRP) in plasma after knee surgery; assay type: in vivo, rabbit
Protocol: C-reactive protein (CRP) is a protein found in the blood plasma, the levels of which rise in response to inflammation (i.e., C-reactive protein is an acute-phase protein). Its physiological role is to bind to phosphocholine expressed on the surface of dead or dying cells (and some types of bacteria) in order to activate the complement system via the C1Q complex. CRP rises within two hours of the onset of inflammation, up to a 50,000-fold, and peaks at 48 hours. […] CRP is thus a screen for inflammation.
Knee surgery was performed to create a severe irreparable degenerative knee joint, which in turn elevated the CRP in the plasma to average of […]. A historical normal amount of CRP is 3.15 micrograms/mL. See Sun H, et al., Am J Pathol. October 2005; 167(4): 1139-1148. Rabbit CRP levels are close to the mean values of healthy middle-aged humans (2.82 mg/L) reported in the literature. See Ockene I S, et al., Clin Chem. 2001; 47:444-450.
The controls in the study were animals that had surgery and received no treatment. The prophylaxis test groups had the surgery and received 6 weeks of oral C-3-G or PCA 7 times per week as described in example 1. The therapeutic treatment group had surgery, received no treatment for 41 days and then at day 42 received oral C-3-G or PCA 7 times per week as described in example 1.

[7] = test system: MMP-13; assay: MMP-13 in synovium by ELISA, rabbit surgically induced knee arthritis; assay type: in vivo; details: vs untreated control, not statistically significant
Text: as §1, §2, §3, §4
(§9) The synovial fluid and half of the synovium was frozen and sent to BioBoston Laboratory for chemical analysis. The other half of the synovium and bone was sent to McClinchery Histology in Stockbridge, Mich. for histological preparation and staining. Patellar slides were sent to BioBoston Contract Laboratories for histochemical staining and ICRS grading. Sample slides were examined for Lubricin at Myron Spector laboratory.
as §6

[8] = test system: TNF-alpha; assay: TNF-alpha in synovial fluid by ELISA, rabbit arthritis model; assay type: in vivo; details: therapeutic groups, oral 4 weeks, vs control; not statistically significant
Text: as §1, §2
(§10) The experimental rabbits underwent surgery with an intent to create a severe degenerative arthritis by cutting the medial collateral ligament, the anterior cruciate ligament and removing the medial meniscus. […]
as §8

[9] = test system: TIMP-1; assay: TIMP-1 in synovial fluid by ELISA, rabbit arthritis model; assay type: in vivo; details: statistical significance not evident
Text: as §1, §2, §10, §8

[10] = test system: ADAMTS-5 gene expression; assay: ADAMTS-5 gene expression in synovium by real-time PCR, rabbit arthritis model; assay type: in vivo; details: therapeutic groups, oral days 42-70, vs control
Text: as §1, §2, §10
Synovial Tissue (Synovium)—Gene Expression Level Detected by Real-Time PCR

[11] = test system: IL-1 beta; assay: IL-1 beta in synovium by ELISA, rabbit arthritis model; assay type: in vivo; details: therapeutic groups, oral days 42-70, vs control
Text: as §1, §7
Interleukin-1 beta (IL-1p) also known as catabolic, is a cytokine protein. […] Increased production of IL-1B causes a number of different auto-inflammatory syndromes. • Synovial Fluid—Detected by ELISA • Levels of IL-1 beta were decreased in all groups. See FIG. 2A. • Synovial Tissue (Synovium)—Detected by ELISA

[12] = test system: lymphocytes; assay: Number of lymphocytes in synovial fluid, rabbit arthritis model; assay type: in vivo; details: therapeutic groups, oral days 42-70, vs control
Text: as §1, §2, §3, §4
In addition to testing for the increase or decrease of various factors and cytokines, tests were run to count the number of white blood cells, including polymorphonuclear leukocytes (PMN), macrophages (Mac) and lymphocytes (Lym). […]

[13] = test system: TGF-beta; assay: TGF-beta in synovium by ELISA, rabbit arthritis model; assay type: in vivo; details: therapeutic group, oral days 42-70, vs control
Text: as §1
The prophylactic groups were given PROC3G™ by Chromadex™ at a dose of 30 mg/kg of body weight of either C3G or PCA by mouth, 7 times per week for 42 days. The therapeutic groups' treatment was initiated on day 42 with a daily dose of PROC3G™ by Chromadex™ 7 times per week for 4 weeks. […]
TGF-β induces apoptosis in numerous cell types. […] It is a type of cytokine which plays a role in immunity, cancer, bronchial asthma, heart disease, diabetes, hereditary hemorrhagic telangiectasia, Marfan syndrome, vascular Ehlers-Danlos syndrome Loeys-Dietz syndrome, Parkinson's disease, and AIDS. • Synovial Fluid—Detected by ELISA • TGF-beta was decreased in all groups. See FIG. 2B. • Synovial Tissue (Synovium)—Detected by ELISA • TGF-beta was increased in the C3G therapeutic group.

[14] = test system: MMP-3; assay: MMP-3 expression in cartilage, histochemical staining and scoring, rabbit arthritis model; assay type: in vivo
Text: as §1, §2, §3, §4, §9
MMP3 is known as matrix metallopeptidase 3, or stromelysin 1 or progelatinase. Proteins of the matrix metalloproteinase (MMP) family are involved in the breakdown of 20 extracellular matrix in normal physiological processes, such as embryonic development, reproduction, and tissue remodeling, as well as in disease processes, such as arthritis and metastasis. […] See FIG. 2C. • Synovial Tissue (Synovium)—Detected by ELISA • MMP-3 levels were reduced in all four groups. See FIG. 9B. • Synovial Tissue (Synovium)—Gene Expression Level Detected by Real-Time PCR • MMP-3 gene expression was decreased in all groups. See FIG. 13A. • Histochemical Scoring Analysis

[15] = prophylactic groups, oral days 1-42, vs control
[16] = therapeutic groups, oral days 42-70, vs control
[17] = prophylactic groups, oral days 1-42
[18] = therapeutic groups, oral days 42-70

OC[C@H]1O[C@@H](Oc2cc3c(O)cc(O)cc3[o+]c2-c2ccc(O)c(O)c2)[C@H](O)[C@@H](O)[C@@H]1O [C3G, cyanidin-3-glucoside, reference compound]
lubricin in synovium [1, 15]: increased | lubricin in synovium [1, 16]: increased | IGF-1 in the plasma [2, 17]: 15.8 pg/mL | IGF-1 in the plasma [2, 18]: 28.5 pg/mL | MMP-1 in synovium [3]: decrease | MMP3 in synovial fluid [4]: decreased | ADAMTS-5 in synovial fluid [5, 15]: decreased | ADAMTS-5 in synovial fluid [5, 16]: decreased | CRP, an indicator of inflammation ([6]; given by oral route immediately after injury): kept to normal levels | plasma CRP level ([6]; prophylaxis test group, 6 weeks oral treatment from surgery, untreated control at 42 days 8.8 mg/mL): 3.1 micrograms/mL | plasma CRP level ([6]; therapeutic group, no treatment for 6 weeks after surgery, then 4 weeks oral treatment): 28.3 mg/mL | MMP-13 levels in synovium ([7]; prophylactic groups, oral 7 times per week days 1-42 (C3G 30 mg/kg, PCA 26.4 mg/kg)): increased slightly | MMP-13 levels in synovium ([7]; therapeutic groups, oral 7 times per week days 42-70 (C3G 30 mg/kg, PCA 26.4 mg/kg)): slightly decreased | TNF-alpha levels in synovial fluid [8]: slight increase | TIMP-1 levels in synovial fluid [9, 15]: elevated | TIMP-1 levels in synovial fluid [9, 16]: elevated | ADAMTS-5 gene expression in synovium [10]: decreased | levels of IL-1 beta in synovium [11]: decreased | number of lymphocytes in synovial fluid [12]: decreased | TGF-beta in synovium [13]: increased | histochemical staining for the presence of MMP-3 in cartilage [14, 17]: very minimal positive stain | MMP-3 expression in cartilage [14, 15]: reduced | histochemical staining for the presence of MMP-3 in cartilage [14, 18]: no staining | MMP-3 expression in cartilage [14, 16]: reduced
